# “Also recorded” adds a separate entry of the source.
# B1: chondroitin 6-sulfotransferase: sulfotransferase purified from serum-free culture medium of chick chondrocyte (protein, UniProt Q92179 1-458, looked up)
# Carbohydrate sulfotransferase …: MERRSALPQDFREVLHCLKMRSKYAVLLVFVVGLVIIEKENNFISRVSDKLKQSPQVLPEANETEASPVQAENGSLASLRQLDTAFSQLRTRLRNVTLQLAGELGIAAPEPRRHVLLMATTRTGSSFVGEFFNQQGNIFYLFEPLWHIERTVTFEPGGANAVGSALVYRDVLQQLLLCDLYILESFISPAPEEHLTAALFRRGSSHSLCEEPVCTPSLKKVFEKYHCKNRRCGPLNITLAAEACRRKQHMALKTVRIRQLEFLQPLAEDPRLDLRIIQLVRDPRAVLVSRMVAFSGKYESWKKWAAEGEAPLQEDEVQRLRGNCESIRLSAELGLRQPRWLRGRYMLVRYEDVARAPLRKALEMYRFAGIHPTPQVEEWIRANTQAPQDSNGIYSTQKNSSEQFEKWRFSIPFKLAQVVQDACEPAMRLFGYKLASSAQELTNRSLSLLEEGPPTRIT
# How the values were obtained:
# [1] = tested on: chondroitin 6-sulfotransferase; assay: Transfer reaction of sulfate group (35SO4) to lactosamine oligosaccharides by purified sulfotransferase; type: biochemical, chick; conditions: for Incorporation of 35S: 0.025 μmol oligosaccharide acceptor, 25 pmol [35S]PAPS, 0.09 μg purified C6ST, 37° C., 60 minutes, pH 6.8; for Incorporation (transfer) of sulfate group into the oligosaccharide, in words: acceptor for chondroitin 6-sulfotransferase, Superdex 30 gel filtration, 35S radioactivity
# Method: Specifically, the transfer reaction of sulfate group (^35 SO4 was used as sulfate group in order to confirm sulfation) to various lactosamine oligosaccharides by using sulfotransferase was performed in accordance with the following method. A standard reaction mixture was a solution containing 2.5 μmol of imidazole-HCl (pH 6.8), 0.25 μmol of CaCl2, 0.1 μmol of dithiothreitol, 0.025 μmol of various lactosamine oligosaccharides, 25 pmol of [^35 S]PAPS (about 2.5×10^5 cpm), and 0.09 μg of purified chondroitin 6-sulfotransferase in a final volume of 50 μl. The reaction mixture was subjected to the reaction at 37° C. for 60 minutes in a reaction tube. The reaction was terminated by immersing the reaction tube in boiling water for 1 minute. After the termination of the reaction, lactosamine oligosaccharide (sulfated lactosamine oligosaccharide) to which ^35 SO4 had been transferred was separated from free ^35 SO4 and [^35 S]PAPS by means of gel filtration chromatography. A fraction (1 ml) was collected to measure the radioactivity.
# The retention time of the sulfated lactosamine oligosaccharide was faster by 2 to 3 minutes than the retention time (indicated by arrows shown in FIG. 1) of the lactosamine oligosaccharide used (lactosamine oligosaccharide before sulfation (acceptor)). […] A peak of sulfated LN partially overlapped with those of free ^35 SO4 and [^35 S]PAPS. A radioactivity peak (indicated by a horizontal bar in FIG. 1A) of a product produced from LN was subjected to paper electrophoresis. As a result, the sulfated LN was separated from ^35 SO4 and [^35 S]PAPS. Therefore, incorporation of sulfate group (^35 SO4) into LN was calculated after the paper electrophoresis.
# [2] = tested on: chondroitin 6-sulfotransferase (C6ST); assay: Sulfotransferase activity measured with various glycosaminoglycan substrates and activators; type: biochemical, chick; conditions: for Transfer of sulfate group to glycosaminoglycan substrate by C6ST, in words: 25 nmol glycosaminoglycan, [35S]PAPS, 37° C., 20 minutes
# Method: In the purification steps, the sulfotransferase activity was measured as follows. The reaction solution had the following composition.
# The activity was measured for various glycosaminoglycans as the substrate, by using 25 nmol of glycosaminoglycans (as an amount of galactosamine for chondroitin sulfate and dermatan sulfate, or as an amount of glucosamine for heparan sulfate and keratan sulfate) in place of chondroitin.
# The reaction solution was incubated at 37° C. for 20 minutes in a reaction tube, and then the reaction was terminated by immersing the reaction tube in boiling water for 1 minute. After the termination of the reaction, 0.1 μmol of chondroitin sulfate A (as an amount of glucuronic acid) was added as a carrier, and three volumes of ethanol containing 1.3% potassium acetate was added thereto to precipitate ^35 S-labeled polysaccharide. The mixture was centrifuged at 10,000× g for 10 minutes to obtain a precipitate which was then dissolved in 70 μl of water. An aliquot (50 μl) of the obtained solution was injected into a desalting column equilibrated with 0.1 M NH4 HCO3, and eluted fractions containing the ^35 S-labeled polysaccharide were collected. To an aliquot (200 μl) of an obtained collected fraction, 1 ml of a scintillation cocktail (Clearsol, produced by nacalai tesque) was added to measure ^35 S-radioactivity. Thus incorporation of ^35 S into the polysaccharide was measured.
# An aliquot (400 μl) was dispensed from the residual solution, to which 800 μl of ethanol containing 1.3% potassium acetate was added, followed by mixing. The mixture was placed on ice for 30 minutes, followed by centrifugation at 10,000× g for 10 minutes to precipitate the ^35 S-labeled polysaccharide. The precipitate was dissolved in 25 μl of a buffer containing 0.1 mg/ml of BSA, 0.05 M Tris-acetate, pH 7.5, and 10 milliunits of chondroitinase ACII (originating from Arthrobacter aurescens, produced by Seikagaku Corporation) to perform a reaction at 37° C. for 2 hours. The solution after the reaction was spotted onto Whatman No. 1 filter paper together with 2-acetamido-2-deoxy-3-O-(β-D-gluco-4-enopyranosyluronic acid)-6-O-sulfo-D-galactose (ΔDi-6S) and 2-acetamido-2-deoxy-3-O-(β-D-gluco-4-enopyranosyluronic acid)-4-O-sulfo-D-galactose (ΔDi-4S) (each 0.1 μmol, each produced by Seikagaku Corporation), followed by development for 20 hours with 1-butanol/acetic acid/1 M ammonium hydroxide (2:3:1 (V/V/V)).
# (§1) Positions of ΔDi-6S and ΔDi-4S were inspected by using an ultraviolet lamp respectively. Portions corresponding to them were excised from the filter paper respectively, and were then placed in a scintillator prepared by dissolving 5 g of diphenyloxazole and 0.25 g of dimethyl-1,4-bis(2-(5-phenyloxazole))benzene in 1 L of toluene to measure radioactivity. […] According to incorporation of ^35 S into ΔDi-6S and ΔDi-4S, activities of chondroitin 6-sulfotransferase and chondroitin 4-sulfotransferase were calculated respectively. The activity to catalyze transfer of 1 pmol sulfate group/minute was defined as 1 unit.
# [3] = Specific activity of purified chondroitin 6-sulfotransferase (35S incorporation into ΔDi-6S and ΔDi-4S); type: biochemical; conditions: chondroitin substrate
# Method: In the purification steps, the sulfotransferase activity was measured as follows. The reaction solution had the following composition. Namely, the reaction solution (50 μl) contained 2.5 μmol of imidazol-HCl, pH 6.8, 1.25 μg of protamine hydrochloride, 0.1 μmol of dithiothreitol,25 nmol (as an amount of glucuronic acid) of chondroitin (produced by Seikagaku Corporation), 50 pmol of [^35 S]PAPS (adenosine 3'-phosphate, 5'-phosphosulfate), and the enzyme.
# The reaction solution was incubated at 37° C. for 20 minutes in a reaction tube, and then the reaction was terminated by immersing the reaction tube in boiling water for 1 minute. […] To an aliquot (200 μl) of an obtained collected fraction, 1 ml of a scintillation cocktail (Clearsol, produced by nacalai tesque) was added to measure ^35 S-radioactivity. Thus incorporation of ^35 S into the polysaccharide was measured. […]
# as §1, with “The activity to catalyze transfer of 1 pmol sulfate group/minute was defined as 1 unit.” left out
Molecule,Incorporation of 35S [1] [pmol/minute/μg protein],"Incorporation (transfer) of sulfate group into the oligosaccharide, in words [1]","Transfer of sulfate group to glycosaminoglycan substrate by C6ST, in words [2]",further results
"CC(=O)NC1C(O)OC(CO)C(OC2OC(CO)C(O)C(OC3(C(=O)O)CC(O)C(NC(C)=O)C(C(O)C(O)CO)O3)C2O)C1O (stereo not shown) [SLN, NeuAcα2--3Galβ1--4GlcNAc]",0.022,observed,,
chondroitin sulfate E,,,only scarcely transferred,
keratan sulfate,,,transfers the sulfate group,
chondroitin sulfate C,,,transfers the sulfate group,
"CC(=O)NC1C(O)OC(CO)C(OC2OC(CO)C(O)C(OC3OC(CO)C(OC4OC(CO)C(O)C(OC5(C(=O)O)CC(O)C(NC(C)=O)C(C(O)C(O)CO)O5)C4O)C(O)C3NC(C)=O)C2O)C1O (stereo not shown) [SL1L1, NeuAcα2--3Galβ1--4GlcNAcβ1--3Galβ1--4GlcNAc]",0.034,observed,,
chondroitin sulfate A,,,transfers the sulfate group,
dermatan sulfate,,,only scarcely transferred,
protamine,,,,Effect on the activity of C6ST [2]: increased
heparan sulfate,,,only scarcely transferred,
[Cl][Mn][Cl] [MnCl2],,,,Effect on the activity of C6ST [2]: increased
"CC(=O)NC1C(O)OC(COS(=O)(=O)O)C(OC2OC(COS(=O)(=O)O)C(O)C(OC3OC(COS(=O)(=O)O)C(OC4OC(CO)C(O)C(OC5(C(=O)O)CC(O)C(NC(C)=O)C(C(O)C(O)CO)O5)C4O)C(O)C3NC(C)=O)C2O)C1O [SL2L4, NeuAcα2--3Galβ1--4GlcNAc(6S)β1--3Gal(6S)β1--4GlcNAc(6S)]",0.48,observed,,
"CC(=O)N[C@H]1[C@H](O[C@H]2[C@@H](O)[C@@H](CO)O[C@@H](O[C@H]3[C@H](O)[C@@H](NC(C)=O)C(O)O[C@@H]3CO)[C@@H]2O)O[C@H](CO)[C@@H](O[C@@H]2O[C@H](CO)[C@H](O)[C@H](O)[C@H]2O)[C@@H]1O (stereo partly shown) [L1L1, Galβ1--4GlcNAcβ1--3Galβ1--4GlcNAc]",0.031,observed,,
"CC(=O)N[C@H]1C(O)O[C@H](CO)[C@@H](O[C@@H]2O[C@H](CO)[C@H](O)[C@H](O)[C@H]2O)[C@@H]1O (stereo partly shown) [LN, Galβ1--4GlcNAc]",0.012,observed,,
chondroitin sulfate,,,transfers the sulfate group,
"CC(=O)NC1C(O)CC(OC2C(O)C(CO)OC(OC3C(CO)OC(O)C(NC(C)=O)C3OC3OC(C)C(O)C(O)C3O)C2O)(C(=O)O)OC1C(O)C(O)CO (stereo not shown) [SLe^x, NeuAcα2--3Galβ1--4(Fucα1-3)GlcNAc]",,no radioactivity was detected; also recorded: not detected,,
chondroitin,,,transfers the sulfate group,
"CC(=O)N[C@H]1[C@H](O[C@H]2[C@@H](O)[C@@H](COS(=O)(=O)O)O[C@@H](O[C@H]3[C@H](O)[C@@H](NC(C)=O)C(O)O[C@@H]3COS(=O)(=O)O)[C@@H]2O)O[C@H](COS(=O)(=O)O)[C@@H](O[C@@H]2O[C@H](CO)[C@H](O)[C@H](O)[C@H]2O)[C@@H]1O (stereo partly drawn) [L2L4, Galβ1--4GlcNAc(6S)β1--3Gal(6S)β1--4GlcNAc(6S)]",0.29,observed,,
B1,,,,Specific activity of chondroitin 6-sulfotransferase ([3]; 1 unit = transfer of 1 pmol sulfate group/minute): 4.3×10^5 units/mg; Ratio of activities of chondroitin 4-sulfotransferase/chondroitin 6-sulfotransferase ([3]; purified enzyme): 0.02

# — patent publication US5955325A, “Method for producing sulfated lactosamine oligosaccharide” (Seikagaku Kogyo Kabushiki Kaisha, priority 1996, dated 1999)
